According to ChEMBL document CHEMBL4507269, “Data for DCP probe BAY-386” (2021):

Assays:
Rattus norvegicus = species: Rattus norvegicus; test: Inhibition of Glutamate, NMDA, Phencyclidine at 10 µM in the Eurofins-Panlabs radioligand binding assay (Eurofins_assay_233000); format: protein-complex assay; details: Compound concentration 10.0 uM
[1] = biological target: Platelet-activating factor receptor (Homo sapiens) (UniProt P25105); test: Inhibition of Platelet Activating Factor (PAF) at 10 µM in the Eurofins-Panlabs radioligand binding assay (Eurofins_assay_265010); details: Compound concentration 10.0 uM
[2] = biological target: T1, Muscarinic acetylcholine receptor M1 (Homo sapiens) (UniProt P11229); test: M1 (h) Eurofins-Cerep Cellular and Nuclear Receptor Functional Assays; details: Compound concentration 10.0 uM
T1 sequence (whole entry): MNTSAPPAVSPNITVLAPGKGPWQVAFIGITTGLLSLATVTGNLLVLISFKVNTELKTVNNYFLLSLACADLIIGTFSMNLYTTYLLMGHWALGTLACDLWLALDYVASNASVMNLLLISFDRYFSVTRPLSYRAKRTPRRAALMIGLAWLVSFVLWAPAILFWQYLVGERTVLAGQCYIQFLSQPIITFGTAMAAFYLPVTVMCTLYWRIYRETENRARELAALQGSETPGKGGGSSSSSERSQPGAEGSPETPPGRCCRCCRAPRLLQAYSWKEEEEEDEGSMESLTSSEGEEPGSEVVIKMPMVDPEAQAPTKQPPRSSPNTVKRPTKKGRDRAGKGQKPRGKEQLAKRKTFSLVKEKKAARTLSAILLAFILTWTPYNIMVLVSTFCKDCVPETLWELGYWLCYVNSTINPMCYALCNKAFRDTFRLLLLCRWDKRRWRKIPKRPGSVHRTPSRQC

[3] = biological target: T2, Muscarinic acetylcholine receptor M4 (Homo sapiens) (UniProt P08173); test: M4 (h) Eurofins-Cerep Cellular and Nuclear Receptor Functional Assays; details: Compound concentration 10.0 uM
T2 sequence (whole entry): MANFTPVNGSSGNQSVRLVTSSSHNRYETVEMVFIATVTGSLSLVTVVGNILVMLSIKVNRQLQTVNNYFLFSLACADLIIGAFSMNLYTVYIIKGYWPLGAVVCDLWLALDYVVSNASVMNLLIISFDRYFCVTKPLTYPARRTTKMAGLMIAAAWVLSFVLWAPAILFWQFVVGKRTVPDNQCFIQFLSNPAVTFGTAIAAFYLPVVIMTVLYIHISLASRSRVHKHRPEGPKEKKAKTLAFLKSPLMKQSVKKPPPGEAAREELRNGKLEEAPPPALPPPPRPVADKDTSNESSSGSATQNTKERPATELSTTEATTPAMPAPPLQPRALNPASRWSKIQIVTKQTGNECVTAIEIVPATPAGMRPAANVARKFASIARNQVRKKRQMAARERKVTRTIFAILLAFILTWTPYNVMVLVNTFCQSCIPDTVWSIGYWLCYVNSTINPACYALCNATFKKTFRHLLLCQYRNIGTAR

[4] = biological target: AP2-associated protein kinase 1 (Homo sapiens) (UniProt Q2M2I8); details: Compound concentration 1000.0 nM
[5] = test system: Tyrosine-protein kinase ABL1 (Homo sapiens), P00519 [T315I]; details: Compound concentration 1000.0 nM
[6] = biological target: Cyclin-dependent kinase 13 (Homo sapiens) (UniProt Q14004); details: Compound concentration 1000.0 nM
[7] = biological target: Cyclin-dependent kinase 2 (Homo sapiens) (UniProt P24941); details: Compound concentration 1000.0 nM
[8] = biological target: Dual specificity protein kinase CLK4 (Homo sapiens) (UniProt Q9HAZ1); details: Compound concentration 1000.0 nM
[9] = biological target: Dual specificity tyrosine-phosphorylation-regulated kinase 1B (Homo sapiens) (UniProt Q9Y463); details: Compound concentration 1000.0 nM
[10] = biological target: Focal adhesion kinase 1 (Homo sapiens) (UniProt Q05397); details: Compound concentration 1000.0 nM
[11] = test system: Receptor-type tyrosine-protein kinase FLT3 (Homo sapiens), P36888 [D835H]; details: Compound concentration 1000.0 nM
[12] = test system: Receptor-type tyrosine-protein kinase FLT3 (Homo sapiens), P36888 [D835Y]; details: Compound concentration 1000.0 nM
[13] = biological target: Interleukin-1 receptor-associated kinase 3 (Homo sapiens) (UniProt Q9Y616); details: Compound concentration 1000.0 nM
[14] = biological target: Mitogen-activated protein kinase kinase kinase 2 (Homo sapiens) (UniProt Q9Y2U5); details: Compound concentration 1000.0 nM
[15] = biological target: MAP kinase-activated protein kinase 2 (Homo sapiens) (UniProt P49137); details: Compound concentration 1000.0 nM
[16] = biological target: Serine/threonine-protein kinase MARK1 (Homo sapiens) (UniProt Q9P0L2); details: Compound concentration 1000.0 nM
[17] = biological target: Dual specificity mitogen-activated protein kinase kinase 1 (Homo sapiens) (UniProt Q02750); details: Compound concentration 1000.0 nM
[18] = biological target: Dual specificity mitogen-activated protein kinase kinase 2 (Homo sapiens) (UniProt P36507); details: Compound concentration 1000.0 nM
[19] = biological target: Dual specificity mitogen-activated protein kinase kinase 6 (Homo sapiens) (UniProt P52564); details: Compound concentration 1000.0 nM
[20] = biological target: Serine/threonine-protein kinase PAK 4 (Homo sapiens) (UniProt O96013); details: Compound concentration 1000.0 nM
[21] = biological target: Ribosomal protein S6 kinase alpha-4 (Homo sapiens) (UniProt O75676); details: Compound concentration 1000.0 nM
[22] = biological target: Ribosomal protein S6 kinase alpha-6 (Homo sapiens) (UniProt Q9UK32); details: Compound concentration 1000.0 nM
[23] = biological target: D(3) dopamine receptor (Homo sapiens) (UniProt P35462); details: Compound concentration 10.0 uM
[24] = biological target: T3, Muscarinic acetylcholine receptor M2 (Homo sapiens) (UniProt P08172); details: Compound concentration 10.0 uM
T3 sequence (whole entry): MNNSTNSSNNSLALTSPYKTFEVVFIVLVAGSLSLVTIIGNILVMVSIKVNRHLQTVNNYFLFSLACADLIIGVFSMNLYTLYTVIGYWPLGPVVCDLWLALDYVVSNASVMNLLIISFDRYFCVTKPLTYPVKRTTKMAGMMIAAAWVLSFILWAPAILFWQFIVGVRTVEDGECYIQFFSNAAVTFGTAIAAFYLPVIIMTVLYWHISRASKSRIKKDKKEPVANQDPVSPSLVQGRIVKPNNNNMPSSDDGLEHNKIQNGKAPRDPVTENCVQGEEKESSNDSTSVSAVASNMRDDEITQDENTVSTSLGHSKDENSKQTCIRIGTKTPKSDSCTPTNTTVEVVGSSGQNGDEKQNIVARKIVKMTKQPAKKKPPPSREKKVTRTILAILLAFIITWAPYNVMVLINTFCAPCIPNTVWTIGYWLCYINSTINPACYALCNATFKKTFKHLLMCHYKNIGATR

Mitogen-activated protein kinase kinase kinase 2 (Homo sapiens), sequence (Q9Y2U5 whole entry): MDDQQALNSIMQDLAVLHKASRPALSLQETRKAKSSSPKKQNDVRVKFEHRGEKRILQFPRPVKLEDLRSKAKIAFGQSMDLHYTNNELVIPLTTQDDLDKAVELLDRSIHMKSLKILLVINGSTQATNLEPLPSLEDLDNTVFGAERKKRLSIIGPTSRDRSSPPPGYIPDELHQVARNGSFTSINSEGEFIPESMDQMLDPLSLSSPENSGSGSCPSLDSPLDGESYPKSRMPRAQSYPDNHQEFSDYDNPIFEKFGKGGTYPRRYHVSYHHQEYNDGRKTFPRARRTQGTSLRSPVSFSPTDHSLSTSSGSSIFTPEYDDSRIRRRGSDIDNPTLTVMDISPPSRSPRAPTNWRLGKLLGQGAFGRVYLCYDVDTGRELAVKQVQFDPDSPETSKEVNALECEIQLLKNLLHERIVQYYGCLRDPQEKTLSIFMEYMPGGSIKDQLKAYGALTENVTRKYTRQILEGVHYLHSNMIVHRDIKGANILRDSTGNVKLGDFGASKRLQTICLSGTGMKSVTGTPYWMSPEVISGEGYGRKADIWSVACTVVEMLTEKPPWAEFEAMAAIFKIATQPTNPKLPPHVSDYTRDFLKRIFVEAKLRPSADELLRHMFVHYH
D(3) dopamine receptor (Homo sapiens), sequence (P35462 whole entry): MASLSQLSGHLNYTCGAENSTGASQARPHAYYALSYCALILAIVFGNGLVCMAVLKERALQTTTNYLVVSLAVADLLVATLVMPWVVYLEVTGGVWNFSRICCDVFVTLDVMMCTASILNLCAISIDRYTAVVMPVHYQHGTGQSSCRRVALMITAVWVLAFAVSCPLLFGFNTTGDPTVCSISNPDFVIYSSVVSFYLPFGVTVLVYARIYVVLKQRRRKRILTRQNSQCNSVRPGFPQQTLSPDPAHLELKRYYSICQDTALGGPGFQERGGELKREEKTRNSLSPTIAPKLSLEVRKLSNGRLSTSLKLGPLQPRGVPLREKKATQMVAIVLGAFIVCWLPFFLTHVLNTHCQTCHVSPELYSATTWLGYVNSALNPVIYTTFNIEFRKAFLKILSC
Ribosomal protein S6 kinase alpha-6 (Homo sapiens), sequence (Q9UK32 whole entry): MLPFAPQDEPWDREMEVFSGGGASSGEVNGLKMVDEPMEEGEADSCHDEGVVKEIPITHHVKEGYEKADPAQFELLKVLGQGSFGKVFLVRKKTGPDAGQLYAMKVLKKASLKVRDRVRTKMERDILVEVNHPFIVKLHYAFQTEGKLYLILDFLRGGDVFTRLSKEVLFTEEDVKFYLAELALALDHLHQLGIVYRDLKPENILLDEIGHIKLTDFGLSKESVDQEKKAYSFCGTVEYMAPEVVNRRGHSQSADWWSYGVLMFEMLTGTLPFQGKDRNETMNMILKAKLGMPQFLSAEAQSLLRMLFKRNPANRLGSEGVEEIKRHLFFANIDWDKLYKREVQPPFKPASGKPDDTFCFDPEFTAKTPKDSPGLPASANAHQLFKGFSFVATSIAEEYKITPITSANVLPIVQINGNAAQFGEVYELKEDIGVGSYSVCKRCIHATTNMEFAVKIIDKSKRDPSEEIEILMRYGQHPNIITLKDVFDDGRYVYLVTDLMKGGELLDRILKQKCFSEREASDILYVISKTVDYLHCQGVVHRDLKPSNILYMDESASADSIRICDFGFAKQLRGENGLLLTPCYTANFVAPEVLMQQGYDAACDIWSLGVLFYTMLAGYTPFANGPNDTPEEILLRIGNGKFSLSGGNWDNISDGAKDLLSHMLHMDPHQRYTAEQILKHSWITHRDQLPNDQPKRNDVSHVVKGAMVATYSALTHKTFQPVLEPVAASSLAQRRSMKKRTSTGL
AP2-associated protein kinase 1 (Homo sapiens), sequence (Q2M2I8 whole entry, looked up): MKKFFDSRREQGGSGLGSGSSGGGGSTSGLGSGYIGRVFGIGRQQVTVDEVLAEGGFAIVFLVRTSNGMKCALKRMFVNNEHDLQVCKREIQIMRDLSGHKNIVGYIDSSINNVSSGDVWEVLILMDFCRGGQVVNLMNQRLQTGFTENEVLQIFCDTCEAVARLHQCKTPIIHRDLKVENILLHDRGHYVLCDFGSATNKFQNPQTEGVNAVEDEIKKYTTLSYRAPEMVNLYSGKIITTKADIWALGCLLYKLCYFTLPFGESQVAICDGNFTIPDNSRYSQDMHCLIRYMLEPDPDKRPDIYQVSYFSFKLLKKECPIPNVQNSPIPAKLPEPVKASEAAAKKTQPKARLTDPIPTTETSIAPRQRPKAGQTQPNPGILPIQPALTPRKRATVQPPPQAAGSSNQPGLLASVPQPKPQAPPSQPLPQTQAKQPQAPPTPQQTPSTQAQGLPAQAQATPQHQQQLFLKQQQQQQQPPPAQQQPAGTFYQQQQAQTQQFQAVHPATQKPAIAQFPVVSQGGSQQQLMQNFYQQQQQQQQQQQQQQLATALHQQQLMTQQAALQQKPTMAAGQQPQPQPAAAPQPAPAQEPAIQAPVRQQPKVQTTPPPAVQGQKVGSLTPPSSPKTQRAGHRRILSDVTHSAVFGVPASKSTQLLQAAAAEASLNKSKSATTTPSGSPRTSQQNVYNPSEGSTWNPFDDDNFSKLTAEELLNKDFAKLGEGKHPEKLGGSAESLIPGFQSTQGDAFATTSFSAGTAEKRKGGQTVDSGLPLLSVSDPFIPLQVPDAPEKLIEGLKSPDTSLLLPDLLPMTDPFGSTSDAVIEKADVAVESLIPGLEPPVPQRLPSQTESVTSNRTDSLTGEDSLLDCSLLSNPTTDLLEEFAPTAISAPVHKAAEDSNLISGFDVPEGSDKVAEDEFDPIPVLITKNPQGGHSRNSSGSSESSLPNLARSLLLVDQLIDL
Cyclin-dependent kinase 13 (Homo sapiens), sequence (Q14004 whole entry, looked up): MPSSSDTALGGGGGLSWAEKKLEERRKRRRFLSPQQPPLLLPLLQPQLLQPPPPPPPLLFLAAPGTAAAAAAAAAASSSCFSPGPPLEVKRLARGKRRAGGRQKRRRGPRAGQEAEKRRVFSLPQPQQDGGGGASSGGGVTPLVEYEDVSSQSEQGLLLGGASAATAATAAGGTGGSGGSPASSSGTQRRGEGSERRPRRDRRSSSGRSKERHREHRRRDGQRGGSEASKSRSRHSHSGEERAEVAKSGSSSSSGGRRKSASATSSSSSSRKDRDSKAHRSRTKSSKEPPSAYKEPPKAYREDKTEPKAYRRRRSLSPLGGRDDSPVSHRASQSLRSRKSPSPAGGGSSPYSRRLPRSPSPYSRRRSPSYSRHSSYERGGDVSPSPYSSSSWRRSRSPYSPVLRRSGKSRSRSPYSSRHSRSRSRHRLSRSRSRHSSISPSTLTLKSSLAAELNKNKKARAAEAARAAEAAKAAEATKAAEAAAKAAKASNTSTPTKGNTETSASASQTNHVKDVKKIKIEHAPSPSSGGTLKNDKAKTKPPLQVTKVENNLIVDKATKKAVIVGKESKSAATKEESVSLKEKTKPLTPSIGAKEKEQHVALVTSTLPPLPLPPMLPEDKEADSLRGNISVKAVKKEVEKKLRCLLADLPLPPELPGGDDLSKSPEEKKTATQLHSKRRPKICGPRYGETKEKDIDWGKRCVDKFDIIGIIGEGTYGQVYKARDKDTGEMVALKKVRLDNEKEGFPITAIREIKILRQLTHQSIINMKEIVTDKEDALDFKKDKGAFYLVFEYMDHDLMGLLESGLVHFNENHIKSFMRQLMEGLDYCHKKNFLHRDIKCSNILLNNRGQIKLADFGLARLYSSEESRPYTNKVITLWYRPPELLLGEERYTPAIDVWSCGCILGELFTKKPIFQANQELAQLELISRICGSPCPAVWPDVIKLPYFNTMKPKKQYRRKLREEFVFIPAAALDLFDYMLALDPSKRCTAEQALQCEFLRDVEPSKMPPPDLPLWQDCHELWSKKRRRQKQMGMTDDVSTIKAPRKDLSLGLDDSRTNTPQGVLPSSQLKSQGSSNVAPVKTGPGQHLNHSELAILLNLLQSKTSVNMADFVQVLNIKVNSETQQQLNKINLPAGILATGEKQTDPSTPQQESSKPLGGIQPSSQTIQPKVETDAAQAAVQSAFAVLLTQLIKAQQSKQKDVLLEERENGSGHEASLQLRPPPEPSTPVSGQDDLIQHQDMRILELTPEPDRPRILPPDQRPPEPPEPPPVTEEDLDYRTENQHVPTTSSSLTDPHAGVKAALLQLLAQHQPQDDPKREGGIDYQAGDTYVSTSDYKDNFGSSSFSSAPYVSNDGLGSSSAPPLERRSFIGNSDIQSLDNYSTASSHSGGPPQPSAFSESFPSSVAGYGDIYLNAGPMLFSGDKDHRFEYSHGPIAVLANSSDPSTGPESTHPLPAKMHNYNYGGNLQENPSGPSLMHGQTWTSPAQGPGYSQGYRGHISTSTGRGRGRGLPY
Dual specificity mitogen-activated protein kinase kinase 6 (Homo sapiens), sequence (P52564 whole entry): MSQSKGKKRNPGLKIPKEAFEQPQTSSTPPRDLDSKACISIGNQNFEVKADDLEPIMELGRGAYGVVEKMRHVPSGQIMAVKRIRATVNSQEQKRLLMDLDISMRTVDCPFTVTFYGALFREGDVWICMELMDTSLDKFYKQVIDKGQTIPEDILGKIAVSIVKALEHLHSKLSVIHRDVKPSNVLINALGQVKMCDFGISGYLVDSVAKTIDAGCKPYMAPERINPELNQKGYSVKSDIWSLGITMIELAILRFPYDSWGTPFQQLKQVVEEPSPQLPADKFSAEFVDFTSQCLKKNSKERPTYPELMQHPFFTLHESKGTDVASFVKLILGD
MAP kinase-activated protein kinase 2 (Homo sapiens), sequence (P49137 whole entry, looked up): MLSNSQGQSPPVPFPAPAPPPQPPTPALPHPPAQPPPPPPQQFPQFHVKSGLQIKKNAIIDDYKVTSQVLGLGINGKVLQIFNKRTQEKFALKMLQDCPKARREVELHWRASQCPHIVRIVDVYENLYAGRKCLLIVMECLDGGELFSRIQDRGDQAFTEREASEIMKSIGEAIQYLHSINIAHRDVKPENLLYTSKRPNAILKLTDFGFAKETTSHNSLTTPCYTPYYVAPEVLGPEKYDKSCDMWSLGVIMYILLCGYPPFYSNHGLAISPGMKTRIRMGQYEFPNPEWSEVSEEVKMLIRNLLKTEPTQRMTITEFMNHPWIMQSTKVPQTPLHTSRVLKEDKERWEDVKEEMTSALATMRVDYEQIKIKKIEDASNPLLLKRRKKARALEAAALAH

SMILES | % Inhibition of Control Agonist Response (Mean n=2) [2] | % of Control Agonist Response (Mean n=2) [2] | % Inhibition of Control Agonist Response (Mean n=2) [3] | % of Control Agonist Response (Mean n=2) [3] | residual activity [4] | residual activity [5] | residual activity [6] | residual activity [7] | residual activity [8] | residual activity [9] | residual activity [10] | residual activity [11] | residual activity [12] | residual activity [13] | residual activity [14] | residual activity [15] | residual activity [16] | residual activity [17] | residual activity [18] | residual activity [19] | other results
O=C(N1CCS(=O)(=O)CC1)N1C[C@H](c2ccc(OC(F)(F)F)cc2)C[C@H](c2nc(C3CC3)no2)C1 [BAY-386] | 57% | 12.8% | 5.8% | -15% | 99% | 92% | 100% | 100% | 100% | 93% | 93% | 92% | 100% | 100% | 100% | 100% | 100% | 91% | 100% | 100% | inhibition (Rattus norvegicus): 0%; inhibition [1]: 0%; residual activity [20]: 100%; residual activity [21]: 82%; residual activity [22]: 100%; inhibition [23]: 5.09%; inhibition [24]: -9.14%
Cc1noc([C@H]2C[C@@H](c3ccc(C(F)(F)F)cc3)CN(C(=O)N3CCS(=O)(=O)C3)C2)n1 [BAY-448] | 10.2% | 1.2% | 1.9% | 25.1% | 100% | 100% | 96% | 100% | 83% | 76% | 100% | 100% | 100% | 100% | 99% | 97% | 91% | 100% | 90% | 100% | residual activity [20]: 100%; residual activity [21]: 100%; residual activity [22]: 100%; inhibition [23]: -2.97%; inhibition [24]: 39.5%
